Experimental data taken from ChEMBL document CHEMBL1201862, “PubChem BioAssay data set” (2004).
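Each compound was tested at five concentrations against cells in 96-well plates for 48 hours. GI50 is the concentration that inhibits growth by half.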 Calls of active or inactive are those of the source. No stated cut-off is given here; in the data, active = GI50 up to about 1.1 µM and inactive = higher.

Legend:
Experiment in all cases: DTP human tumour cell line panel, 48 h
MOLT-4 = system: MOLT-4
TK-10 = system: TK-10
NCI-H460 = system: NCI-H460
OVCAR-4 = system: OVCAR-4
SNB-19 = system: SNB-19
A549 = system: A549
IGROV-1 = system: IGROV-1
HCT-116 = system: HCT-116
CAKI-1 = system: CAKI-1
HCT-15 = system: HCT-15
BT-549 = system: BT-549
HCC 2998 = system: HCC 2998
SR = system: SR
HL-60 = system: HL-60
ACHN = system: ACHN
UACC-62 = system: UACC-62
NCI-H226 = system: NCI-H226
OVCAR-5 = system: OVCAR-5
SW-620 = system: SW-620
HOP-62 = system: HOP-62
HT-29 = system: HT-29
EKVX = system: EKVX
NCI-H522 = system: NCI-H522
SF-295 = system: SF-295
SK-MEL-2 = system: SK-MEL-2
SF-268 = system: SF-268
M14 = system: M14
SK-MEL-5 = system: SK-MEL-5
DU-145 = system: DU-145
UO-31 = system: UO-31
SK-MEL-28 = system: SK-MEL-28
MDA-MB-231 = system: MDA-MB-231
Hs-578T = system: Hs-578T
MCF7 = system: MCF7
NCI-H23 = system: NCI-H23
786-0 = system: 786-0
SN12C = system: SN12C
MDA-N = system: MDA-N
RPMI-8226 = system: RPMI-8226
T47D = system: T47D
K562 = system: K562
RXF 393 = system: RXF 393
A498 = system: A498
CCRF-CEM = system: CCRF-CEM
NCI/ADR-RES = system: NCI/ADR-RES
MDA-MB-435 = system: MDA-MB-435
OVCAR-8 = system: OVCAR-8
UACC-257 = system: UACC-257
COLO 205 = system: COLO 205
PC-3 = system: PC-3
U-251 = system: U-251
SK-OV-3 = system: SK-OV-3
OVCAR-3 = system: OVCAR-3
HOP-92 = system: HOP-92
Malme-3M = system: Malme-3M
KM12 = system: KM12
SNB-75 = system: SNB-75
LOX IMVI = system: LOX IMVI
SF-539 = system: SF-539
DMS-273 = system: DMS-273
DMS-114 = system: DMS-114

Measured: GI50

O=c1[nH]c2cc(Cl)ccc2nc1/C(=N/Nc1ccccc1)C(O)c1ccco1 (stereo unspecified)
inactive: MOLT-4 > 100 µM | TK-10 > 100 µM | NCI-H460 > 100 µM | OVCAR-4 > 100 µM | SNB-19 > 100 µM | A549 > 100 µM | IGROV-1 > 100 µM | HCT-116 > 100 µM | CAKI-1 > 100 µM | BT-549 > 100 µM | HCC 2998 > 100 µM | SR > 100 µM | HL-60 > 100 µM | ACHN > 100 µM | UACC-62 > 100 µM | NCI-H226 > 100 µM | OVCAR-5 > 100 µM | SW-620 > 100 µM | HOP-62 > 100 µM | HT-29 > 100 µM | EKVX > 100 µM | NCI-H522 > 100 µM | SF-295 > 100 µM | SK-MEL-2 > 100 µM | SF-268 > 100 µM | M14 > 100 µM | SK-MEL-5 > 100 µM | DU-145 > 100 µM | UO-31 > 100 µM | SK-MEL-28 > 100 µM | MDA-MB-231 > 100 µM | Hs-578T > 100 µM | MCF7 > 100 µM | NCI-H23 > 100 µM | 786-0 > 100 µM | SN12C > 100 µM | MDA-N > 100 µM | RPMI-8226 > 100 µM | T47D > 100 µM | K562 > 100 µM | RXF 393 > 100 µM | A498 > 100 µM | CCRF-CEM > 100 µM | NCI/ADR-RES > 100 µM | MDA-MB-435 > 100 µM | OVCAR-8 > 100 µM | UACC-257 > 100 µM | COLO 205 > 100 µM | PC-3 > 100 µM | U-251 > 100 µM | SK-OV-3 > 100 µM | OVCAR-3 > 100 µM | HOP-92 > 100 µM | Malme-3M > 100 µM | KM12 > 100 µM | SNB-75 > 100 µM | LOX IMVI > 100 µM | SF-539 > 100 µM
> 100 µM: HCT-15

CC1[C@@H]2CC=C3[C@H]4CCC5Cc6nc7c(nc6C[C@@]5(C)C4CC(=O)[C@]32CO[C@]12OC(C)(C)CC2O)CC1CC[C@@H]2C3=C[C@H]4O[C@@]5(O[C@@](C)(CO)C[C@@H]5O)C(C)[C@@]4(O)[C@]3(C)[C@@H](O)CC2[C@]1(C)C7 (stereo partly specified)
active: TK-10 0.034 µM | HCC 2998 0.0955 µM | NCI-H226 0.00273 µM | NCI-H522 0.00121 µM | DMS-273 0.105 nM | NCI-H23 0.0055 µM | DMS-114 0.172 nM | A498 0.00143 µM

C=CCN1C(=O)/C(=C/c2ccc(Cl)cc2)N=C1SC/C=C/C
inactive: MOLT-4 17.5 µM | TK-10 > 100 µM | NCI-H460 62.4 µM | OVCAR-4 29.2 µM | SNB-19 22.9 µM | A549 11.2 µM | IGROV-1 65.5 µM | HCT-116 17 µM | CAKI-1 61.2 µM | BT-549 33.9 µM | HCC 2998 49.9 µM | SR 17.5 µM | HL-60 21.7 µM | ACHN 56.2 µM | UACC-62 42.3 µM | NCI-H226 > 100 µM | OVCAR-5 37.8 µM | SW-620 31.8 µM | HOP-62 > 100 µM | HT-29 30.9 µM | EKVX 26.4 µM | NCI-H522 28.4 µM | SF-295 46.9 µM | SK-MEL-2 24.2 µM | SF-268 48.3 µM | M14 31 µM | SK-MEL-5 24.4 µM | DU-145 60.8 µM | UO-31 34.7 µM | SK-MEL-28 53.2 µM | MDA-MB-231 42.4 µM | Hs-578T 37.7 µM | MCF7 26.6 µM | NCI-H23 32.1 µM | 786-0 33 µM | SN12C 21.7 µM | MDA-N 25.3 µM | RPMI-8226 17.3 µM | T47D 21 µM | K562 25.5 µM | RXF 393 15.7 µM | A498 33.9 µM | CCRF-CEM 39.8 µM | NCI/ADR-RES 35.2 µM | MDA-MB-435 33.6 µM | OVCAR-8 29.5 µM | UACC-257 37.8 µM | COLO 205 32.1 µM | PC-3 31.4 µM | U-251 27.4 µM | SK-OV-3 > 100 µM | OVCAR-3 44.6 µM | HOP-92 24.2 µM | Malme-3M 33.7 µM | KM12 32.3 µM | SNB-75 75.7 µM | LOX IMVI 34 µM | SF-539 > 100 µM
34.2 µM: HCT-15
